Results on 17 compounds are retold here after patent publication US20240174634A1, “Aldehyde Dehydrogenase Inhibitors and Their Therapeutic Use” (priority 2020, published 2024).

By IC50 is commonly meant the concentration at which inhibition is half-maximal.

The experiment has as its target T1, ALDH1A3 (Homo sapiens, UniProt P47895).
T1 sequence (P47895 1-512): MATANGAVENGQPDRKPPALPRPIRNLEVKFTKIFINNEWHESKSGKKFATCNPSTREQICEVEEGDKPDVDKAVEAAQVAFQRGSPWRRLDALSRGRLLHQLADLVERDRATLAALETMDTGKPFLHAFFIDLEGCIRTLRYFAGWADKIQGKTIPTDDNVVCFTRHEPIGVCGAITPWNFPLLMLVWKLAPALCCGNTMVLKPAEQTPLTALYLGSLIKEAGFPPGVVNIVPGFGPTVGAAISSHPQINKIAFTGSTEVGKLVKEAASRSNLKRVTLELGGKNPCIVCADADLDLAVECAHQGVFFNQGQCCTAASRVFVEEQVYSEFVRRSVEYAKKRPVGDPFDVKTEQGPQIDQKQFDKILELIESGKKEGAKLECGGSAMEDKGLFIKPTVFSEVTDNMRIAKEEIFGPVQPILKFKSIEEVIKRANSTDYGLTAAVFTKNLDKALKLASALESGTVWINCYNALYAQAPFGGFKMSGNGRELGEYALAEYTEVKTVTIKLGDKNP
Put plainly: Primary biochemical assay, NAD(P)H-Glo Detection System. The note with it: 30 min pre-incubation, propionaldehyde and NAD at Km. Also on record: His-tag; made in house; host or cells: E. coli Rosetta (DE3). The method, boiled down: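 Recombinant full-length His-tagged human enzymes expressed in E. coli were pre-incubated 30 min at room temperature with compound (10-point, 3-fold series; top 20 μM for ALDH1A3, 250 μM for ALDH1A1/1A2). Propionaldehyde and NAD were then added at Km; NADH was read by NAD(P)H-Glo luminescence. Buffer: Tris (pH 7.6 for 1A1/1A2, 9.0 for 1A3), 1 mM TCEP, 0.01% Tween-20.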
`O=C1CCc2cc(OCCN3CCCC3c3cccnc3)ccc2N1` (centres unmarked) [ALDHI-2005, 6-[2-[2-(3-pyridyl)pyrrolidin-1-yl]ethoxy]-3,4-dihydro-1H-quinolin-2-one] came in with a concentration for half-maximal inhibition (IC50) of less than 100 nM.

In the case of `O=C1CCc2cc(OCCN3CCCC3c3ccccn3)ccc2N1` (centres unmarked) [ALDHI-2006, 6-[2-[2-(2-pyridyl)pyrrolidin-1-yl]ethoxy]-3,4-dihydro-1H-quinolin-2-one], the IC50 is 100 to 1000 nM.

For the compound `O=C1CCc2cc(OCCN3CCC[C@@H]3c3cccc(F)c3)ccc2N1` [ALDHI-2007, 6-[2-[(2R)-2-(3-fluorophenyl)pyrrolidin-1-yl]ethoxy]-3,4-dihydro-1H-quinolin-2-one], the IC50 is less than 100 nM.

As for `O=C1CSc2cc(OCCN3CCCC3c3cccc(F)c3)ccc2N1` (centres unmarked) [ALDHI-2008, 7-[2-[2-(3-fluorophenyl)pyrrolidin-1-yl]ethoxy]-4H-1,4-benzothiazin-3-one], the IC50 was less than 100 nM.

`O=C1COc2cc(OCCN3CCCC3c3cccc(F)c3)ccc2N1` (centres unmarked) [ALDHI-2009, 7-[2-[2-(3-fluorophenyl)pyrrolidin-1-yl]ethoxy]-4H-1,4-benzoxazin-3-one] displayed an IC50 of 100 to 1000 nM.

Turning to `Cc1ccc(C2CCCN2CCOc2ccc3c(c2)CCC(=O)N3)cc1` (centres unmarked) [ALDHI-2010, 6-[2-[2-(p-tolyl)pyrrolidin-1-yl]ethoxy]-3,4-dihydro-1H-quinolin-2-one], the IC50 was less than 100 nM.

`Cc1cccc(C2CCCN2CCOc2ccc3c(c2)CCC(=O)N3)c1` (centres unmarked) [ALDHI-2011, 6-[2-[2-(m-tolyl)pyrrolidin-1-yl]ethoxy]-3,4-dihydro-1H-quinolin-2-one]: the IC50 lay within 100 to 1000 nM.

Consider `Cc1ccccc1C1CCCN1CCOc1ccc2c(c1)CCC(=O)N2` (centres unmarked) [ALDHI-2012, 6-[2-[2-(o-tolyl)pyrrolidin-1-yl]ethoxy]-3,4-dihydro-1H-quinolin-2-one], for which the IC50 fell in the range of 100 to 1000 nM.

For the compound `O=C1CCc2cc(OCCN3CCCC3c3cccs3)ccc2N1` (centres unmarked) [ALDHI-2013, 6-[2-[2-(2-thienyl)pyrrolidin-1-yl]ethoxy]-3,4-dihydro-1H-quinolin-2-one], the IC50 is less than 100 nM.

Compound `O=C1CCc2cc(OCCN3CCCC3c3ccsc3)ccc2N1` (centres unmarked) [ALDHI-2014, 6-[2-[2-(3-thienyl)pyrrolidin-1-yl]ethoxy]-3,4-dihydro-1H-quinolin-2-one] registered an IC50 of less than 100 nM.

`CCn1cc(C2CCCN2CCOc2ccc3c(c2)CCC(=O)N3)cn1` (centres unmarked) [ALDHI-2016, 6-[2-[2-(1-ethylpyrazol-4-yl)pyrrolidin-1-yl]ethoxy]-3,4-dihydro-1H-quinolin-2-one]: the half-inhibitory concentration (IC50) lay within 100 to 1000 nM.

As to `O=C1CCc2cc(OCCN3CCC[C@H]3c3cccc(F)c3)ccc2N1` [ALDHI-2018, 6-[2-[(2S)-2-(3-fluorophenyl)pyrrolidin-1-yl]ethoxy]-3,4-dihydro-1H-quinolin-2-one], the half-inhibitory concentration (IC50) is less than 100 nM.

The compound `O=C1CCc2cc(OCCN3CCCC3c3ccccc3)ccc2N1` (centres unmarked) [ALDHI-2019, 6-[2-(2-phenylpyrrolidin-1-yl)ethoxy]-3,4-dihydro-1H-quinolin-2-one] had an IC50 of 100 to 1000 nM.

With `O=C1CCCc2cc(OCCN3CCCC3c3cccc(F)c3)ccc2N1` (centres unmarked) [ALDHI-2020, 7-[2-[2-(3-fluorophenyl)pyrrolidin-1-yl]ethoxy]-1,3,4,5-tetrahydro-1-benzazepin-2-one], the IC50 is less than 100 nM.

As for `O=C1CCc2cc(OCCN3CCC3c3cccc(F)c3)ccc2N1` (centres unmarked) [ALDHI-2021, 6-[2-[2-(3-fluorophenyl)azetidin-1-yl]ethoxy]-3,4-dihydro-1H-quinolin-2-one], the IC50 is 100 to 1000 nM.

In the case of `O=c1ccc2cc(OCCN3CCCC3c3cccc(F)c3)ccc2[nH]1` (centres unmarked) [ALDHI-2022, 6-[2-[2-(3-fluorophenyl)pyrrolidin-1-yl]ethoxy]-1H-quinolin-2-one], the IC50 was less than 100 nM.

In turn, `O=C1CCc2cc(OCCn3nccc3-c3cccc(F)c3)ccc2N1` [ALDHI-2023, 6-[2-[5-(3-fluorophenyl)pyrazol-1-yl]ethoxy]-3,4-dihydro-1H-quinolin-2-one] returned an IC50 of less than 100 nM.
